# Measured values reported in patent publication US20230139543A1, “COMPOUNDS FOR USE IN A METHOD OF TREATING, PREVENTING AND/OR REDUCING THE SYMPTOMS OF PAIN” (The Beckley Foundation, priority 2020, published 2023).
# “Also recorded” adds a separate entry of the source.
# What was measured:
# [1] = Pharmacokinetics: LSD plasma levels by UHPLC-MS/MS; assay type: in vivo; settings: both sexes, human, single oral dose 20 μg LSD, read-out: mean (SD) plasma LSD concentration
# Procedure: (§1) Twenty-four healthy participants (12 male, 12 female) participated in a randomized, double-blind, placebo-controlled, within-subject study in which they received single oral doses of 20 μg LSD (hydrate) and placebo on 4 separate test days. A minimum washout of 5 days proceeded in between to avoid carry-over effects. Treatment orders were randomly assigned to participants according to a balanced block design. LSD was formulated as a solution of 25 μg LSD base in 1 ml 96% ethanol according to GMP and administered orally. LSD doses (0.8 ml for 20 μg LSD) were supplemented with an ethanol solution up to a total volume 1 ml and administered with a syringe under the tongue. Placebo consisted of a 1 ml ethanol solution only. Treatments were administered at 10 AM.
# At 1.5 and 5 hours post treatment, participants conducted a Cold Pressor Test (further described below). […] Vital signs were recorded at baseline, every 30 minutes during the first three hours after dosing, and at every hour thereafter. […]
# Blood samples were centrifuged, and plasma was frozen at −20° C. until analysis for pharmacokinetic assessments. LSD plasma levels were analysed by ultra-high-performance liquid chromatography tandem mass spectrometry (UHPLC-MS/MS) as previously described previously. PK Samples with a LSD concentration below […] were re-analysed by a different extraction procedure. […]
# healthy participants [2] = experiment: Cold Pressor Test (CPT), placebo-controlled trial; assay type: in vivo, human; settings: single oral dose 20 μg LSD vs placebo, 1.5 and 5 hours post treatment
# Procedure: as §1
# (§2) At 1.5 and 5 hours post treatment, participants conducted a Cold Pressor Test (further described below). The Brief Symptom Inventory and the Clinician Administered Dissociation State Scale (CADSS) were administered prior to treatment administration (baseline) and at the end of a test day, i.e. at 6 hours post dosing. Vital signs were recorded at baseline, every 30 minutes during the first three hours after dosing, and at every hour thereafter. Blood samples were collected at every hour. Participants resided in a secluded room that contained a bed, table and chairs. Standardized lunches were provided around 12 AM.
# The CPT was used to induce a painful sensation according to previously validated procedure (Smeets et al. Psychoneuroend. 2012, 37, 1998-2008). The CPT is the most commonly used test to induce conditioned pain modulation and to evaluate analgesic properties such as pain tolerance in healthy subjects (see, for instance, Okkerse et al. Br J Clin Pharmacol. 2017, 83(5), 976-990; Oaks et al. Discov Med. 2018, 26(144), 197-206). […]
# A water tank was filled with water that was cooled to 3° C. […] Dependent measures of the CPT included pain tolerance (sec) and subjective ratings of painfulness, unpleasantness and stress as assessed 10 cm visual analogue scales. Water temperature at onset and completion of the CPT were assessed as control measure.
# (§3) Analyses were carried out by means of the SPSS 25 program series to investigate whether the effects of LSD doses differed from those of placebo. CPT parameters and baseline adjusted parameters of vital signs were analysed using a three factor ANOVA to assess main effects of Treatment, Time after treatment and Participant as well as the interaction Treatment×Time after treatment. […]
# healthy participants [3] = experiment: Vital signs (heart rate, blood pressure); assay type: in vivo, human; settings: single oral dose 20 μg LSD vs placebo; data not shown
# Procedure: as §1, §2
# Heart rate (bpm) and blood pressure (mmHg) were repeatedly assessed using an Omron M6 (HEM-7321-E, Omron Healthcare Europe By) device.
# as §3, with “treatment. Mean contrast (LSD dose versus placebo) tests were conducted for measuring the significance of individual dose effects, relative to placebo.” for “treatment.”
smiles,measurement,setting,value
"CCN(CC)C(=O)[C@@H]1C=C2c3cccc4[nH]cc(c34)C[C@H]2N(C)C1 [LSD, (D)-lysergic acid diethylamide]",concentration at 1.5 h,[1]; 1.5 hours after administration,0.482 ng/mL
same,concentration at 6 h,[1]; 6 hours post treatment,0.223 ng/mL
same,stress during the CPT (10 cm visual analogue scale),healthy participants [2],did not lead to a significant change; also recorded: not affected
same,pain tolerance during the CPT,healthy participants [2]; p=0.006,significant increase; also recorded: significantly increased
same,unpleasantness during the CPT (10 cm visual analogue scale),healthy participants [2]; p=0.008,significant decrease; also recorded: decreased
same,painfulness during the CPT (10 cm visual analogue scale),healthy participants [2]; p=0.012,significant decrease; also recorded: decreased
same,diastolic blood pressure,healthy participants [3],slightly increased
same,heart rate,healthy participants [3],not affected
same,systolic blood pressure,healthy participants [3],slightly increased
